Reference: patent US20070161691A1, “Modified-protein formation inhibitor” (TOKAI UNIVERSITY, priority 2003, published 2007)

What was measured:
[1] = tested on: middle cerebral artery ischemia-reperfusion model; assay: Cerebroprotective action in middle cerebral artery ischemia-reperfusion model; format: in vivo, rat
Method: CD(SD)IGS male rats (Japan Charles River Kabushiki […], Hino farm, room No. 22, specific product) (8 rats per one group) having body weight 270 to 350 g were anesthetized by 2% isoflurane (mixed bas comprising of 70% N2O (laughter gas) and 30% O2) to immobilize, and then the rats were put on warming plate to keep the rectal and brain temperature 37 to 38° C. After that, to observe the stability in the examination, canula which was made by polyethylene (PE-50, Becton Dickinson) was inserted and left in caudal artery of said animal, and this made blood drawing and blood pressure determining to monitor the biochemical parameter such as blood sugar level, hematocrit, CO2 concentration, oxygen partial pressure, pH, blood pressure and etc. In addition, cerebral blood flow in cortex was determined by laser doppler […] (Neuroscience.inc: OMEGA FLOW (FLO-C1)), putting the detection site directly on cranium on the point left 4 mm from bregma. Left neck of such animal was incised, and from internal and external carotid fork of common carotid artery to upstream of internal carotid, nylon surgical thread (length 16 mm, diameter 0.2 to 0.3 mm, with silicon coating on its tip 3 mm) was passed and left, middle cerebral artery was obstructed for 2 hours. After that, the thread was removed to release the middle cerebral artery, and blood was reperfused for 21 hours. To each animals, 3.0 mg/kg of 3-methyl-1-phenyl 2-pyrazolin-5-one (control, hereinafter referring to edaravone) and 4.23 mg/kg of 4-(5-phenyltetrazol-1-ylmethyl)-morpholine (compound 1) (test compound, hereinafter referring to TM-3001) were respectively administered twice by cannula which is left in caudal artery 5 minutes and 5 hours after middle cerebral artery occlusion. After said operation, the brain was removed from said animal, and after preparing 7 brain slices with 2 mm thickness, to TTC stain (0.8 g of 2,3,5-triphenyltetrazolium chloride (Sigma) dissolved in 40 ml of saline) were soaked at 37° C. for 15 minutes to stain, and fixed by 10% neutral formalin liquid to prepare specimen. Such specimens were created the image by CCD camera respectively, and analysed according to method of Swanson et al. (J Cereb Blood Flow Metab 10:290-293; […]). […] Furthermore, function recovering was estimated before and after the operation by rotor rod test that estimates how much they can walk on rotating rotor.

[2] = tested on: middle cerebral artery ischemia-reperfusion model; assay: as above; format: in vivo, rat; details: after reperfusion 22 hrs
[3] = comparing to diluent single administration

For CC1=NN(c2ccccc2)C(=O)C1 [Edaravone, 3-methyl-1-phenyl 2-pyrazolin-5-one, reference compound], the “Nervous condition estimation test, Ave (Bederson grade)” value (from here on “Nervous condition estimation test, Ave”) ([1]; after occlusion 10 min) was 2.8, the “Nervous condition estimation test, Ave” value ([1]; after occlusion 2 hrs) was 2.7 and the “Nervous condition estimation test, Ave” value ([1]; after reperfusion 10 min) was 2.2. The “Nervous condition estimation test, Ave” value ([1]; after reperfusion 3 hrs) was 2.1, the “Nervous condition estimation test, Ave” value ([1]; after reperfusion 4 hrs) was 2.0 and the “rotor rod test, Ave (count from rotor rod machine)” value ([1]; before occlusion) was 197.0. The “improvement for nervous condition” value [1, 3] was “remarkably shown”, the “recovering the function, rotor rod test” value [1, 3] was “remarkably shown” and the cerebral infarction nest ([1]; comparing to diluent single administration, dosed 5 minutes and 5 hours after occlusion) was “significantly reduced”. For the same compound, the “rotor rod test, Ave (count from rotor rod machine)” value ([1]; reperfusion) was 153.1, the “rotor rod test, ratio to before occlusion (%), Ave” value ([1]; reperfusion vs before occlusion) was 160.4% and the “Nervous condition estimation test, Ave” value [2] was 1.5.
